Source: article PMC10368370, “Development of o-aminobenzamide salt derivatives for improving water solubility and anti-undifferentiated gastric cancer” (Frontiers in Pharmacology, 2023)
Where two headings read alike, the source gives them in different places.

Assays:
[1] = system: HGC-27 xenograft; assay: HGC-27 tumor xenograft model; assay type: in vivo, BALB/c nude mice; settings: p.o., bid, 14 days, HGC-27 xenograft
Protocol: 4-week-old male BALB/c nude mice weighing 18g–22 g were injected with 100 μL HGC-27 cells (2 × 10^6 cells) to establish an undifferentiated gastric cancer model.
(A) Tumor volumes plotted as mean ± SEM. (B) Mice weight curve during treatment plotted as mean ± SD. (C,D) Tumor weight and size on the final day.

[2] = Pharmacokinetic study; assay type: in vivo, SD rats; settings: SD rats; for Cmax: read-out: Cmax
Protocol: 7–8-week Male SD rats weighing 180–220 g were allowed for this experiment. The rats were fasted 12 h except for water. The solution was administered to rats by intravenous injection of 10% ethanol +10% solutol as solvent and intragastric injection of 5% castor oil +5% solutol as solvent. The dose concentration was 8 mg/mL for intravenous injection and 10 mg/mL for gavage.
Twelve male SD rats were divided into 4 groups with 3 rats in each group. Group 1 was F8-intravenous injection group, the dose was 20 mg/kg; Group 2 was F8- intragastric administration group, the dose was 100 mg/kg; Group 3 was F8·2HCl-intragastric administration group, the dose was 100 mg/kg. Blank blood was collected before administration, and blood was collected at predetermined time points after administration:
Intravenous injection group: before administration, 2 min, 5 min, 15 min, 30 min, 1 h, 2 h, 4 h, 8 h, 12 h, 24 h. Intragastric administration group: Before administration, 5 min, 15 min, 30 min, 1 h, 2 h, 4 h, 6 h, 8 h, 12 h, 24 h. About 0.5 mL of blood was collected and placed in an EDTA-K2 tube at […]. The plasma was centrifuged and stored at −80°C. The samples were detected by liquid-mass spectrometry analysis system. The chromatographic column used was ODS-C18 (4.6 × 50 mm, 3 µm). The chromatographic conditions were as follows: Mobile phase A is aqueous phase, […] (including 0.1% formic acid); Mobile phase B is organic, 95% acetonitrile (containing 0.1% formic acid). Flow rate of 0.4 mL/min, column temperature: room temperature, according to the drug plasma concentration data, calculated pharmacokinetic parameters using DAS 2.0 software.
After oral administration, drugs need to go through four stages, namely, absorption, distribution, metabolism and excretion. However, the changes in solubility of drugs after salting only affect the absorption stage. Since absorption is accompanied by a dissolution process, the water solubility and dissolution rate of drugs are the main factors that determine their absorption, and then affect their oral bioavailability ([Elder et al., 2013]). Under the stimulation of cell activity and increased solubility, pharmacokinetic experiments were carried out to understand the drug exposure and provide a basis for further druggability of compound F8. In this study, compound F8 and F8·2HCl were administered in two different ways: tail vein injection (20 mg/kg) and gavage (100 mg/kg), and pharmacokinetic parameters were measured in Sprague-Dawley (SD) rats (Figures 3, 4).

[3] = system: HuH7; assay: MTT cytotoxicity / anti-proliferation assay; assay type: cell-based; settings: 72 h, read-out: IC50, cancer cell viability
[4] = system: MGC-803; parameters: method as in Feng et al., 2022; settings: MGC-803, previous work; ref Feng et al., 2022; cited from earlier work
[5] = system: HCC-1806; assay: MTT cytotoxicity / anti-proliferation assay; assay type: cell-based; settings: Homo sapiens, HCC1806, 72 h, HCC-1806, MTT, read-out: IC50, cancer cell viability
[6] = system: HCT-116; assay: MTT cytotoxicity / anti-proliferation assay; assay type: cell-based; settings: Homo sapiens, HCT-116, 72 h, HCT-116, MTT, read-out: IC50, cancer cell viability
[7] = system: HGC-27 cells; assay: MTT cytotoxicity / anti-proliferation assay; assay type: cell-based, human; settings: Homo sapiens, HGC-27, 72 h, HGC-27, MTT, read-out: IC50, cancer cell viability
Protocol: Undifferentiated human gastric cancer cell line (HGC-27) was purchased from the China Center for Type Collection (CCTCC, China) and used with 10% Foetal Bovine Serum (FBS, Gemini, Bio-Product, CA, United States), 1% penicillin streptomycin (PS) and 89% 1,640 medium ([…]) for culture. All cells were incubated at 37°C in a constant temperature incubator containing 95% air and 5% CO2.
To evaluate the cytotoxicity of F8 and related organic salts on HGC-27 cells, MTT analysis was performed. HGC-27 cells were digested with trypsin, then cells were spread into 96-well plates at a density of 3,000 cells/well and incubated for 12–16 h. After 12 h, the medium in 96-well plates was replaced with compounds containing 1, 0.5, 0.25, 0.125, 0.062, 0.0312 μM for another 72 h. Three days later, 20 μL MTT solution was added and incubated at 37°C for 4 h. Then 150 μL DMSO solution was added to each well after the fluid was removed, and the absorbance was detected by microplate reader. The compound dissolved in DMSO was added to the cell medium so that the final concentration of DMSO was less than 0.4%.
Infinite proliferation is one of the most prominent features of cancer cells, therefore, we evaluated the anti-proliferation activity of compounds F8 and related organic salts against human gastric carcinoma HGC-27 via MTT assay.

[8] = system: MCF-7; assay: MTT cytotoxicity / anti-proliferation assay; assay type: cell-based; settings: Homo sapiens, MCF7, 72 h, MCF-7, MTT, read-out: IC50, cancer cell viability
[9] = system: AGS; parameters: method as in Feng et al., 2022; settings: previous work, ref Feng et al., 2022; cited from earlier work
[10] = system: MDA-MB-468; assay: MTT cytotoxicity / anti-proliferation assay; assay type: cell-based; settings: Homo sapiens, MDA-MB-468, 72 h, MDA-MB-468, MTT, read-out: IC50, cancer cell viability
[11] = system: GES-1; parameters: method as in Feng et al., 2022; settings: GES-1 normal cells, previous work; ref Feng et al., 2022; cited from earlier work
[12] = system: MDA-MB-231; assay: MTT cytotoxicity / anti-proliferation assay; assay type: cell-based; settings: Homo sapiens, MDA-MB-231, 72 h, MDA-MB-231, MTT, read-out: IC50, cancer cell viability
[13] = system: SK-Hep-1; assay: MTT cytotoxicity / anti-proliferation assay; assay type: cell-based; settings: SK-Hep-1, MTT, 72 h; read-out: IC50, cancer cell viability
[14] = Solubility in aqueous solution (pure water, normal saline); assay type: physicochemical
[15] = system: HCC-1937; assay: MTT cytotoxicity / anti-proliferation assay; assay type: cell-based; settings: Homo sapiens, HCC1937, 72 h, HCC-1937, MTT, read-out: IC50, cancer cell viability
[16] = male, Sprague-Dawley, rat, plasma, iv, 20 mg/kg
[17] = male, Sprague-Dawley, rat, plasma, oral, 100 mg/kg, 100 mg/kg, route ip (methods: intragastric)

For `N#CC1(c2ccc(NC(=O)c3cccnc3NCc3ccncc3)cc2)CCCC1` [Apatinib, apatinib, reference compound], the “tumor growth inhibition (TGI)” value ([1]; 37.5 mg/kg) was 50.0%.
Work on `O=C(NCc1ccc(NC(=O)c2cc(F)ccc2N2CCCC2)cc1)OCc1cccnc1` [F8] yielded a Tmax ([2]; 100 mg/kg, route ip (methods: intragastric), 100 mg/kg) of 0.19 h, a peak plasma concentration ([2]; oral administration 100 mg/kg, 100 mg/kg) of 0.4 µg/mL and an AUC(0-inf) [2, 16] of 6990 ng·h/mL. For the same compound, the half-life [2, 16] was 3.09 h, the Cmax ([2]; male, Sprague-Dawley, rat, plasma, iv, 20 mg/kg, 20 mg/kg, iv) was 12100 ng/mL and the Tmax ([2]; male, Sprague-Dawley, rat, plasma, iv, 20 mg/kg, 20 mg/kg, iv, read-out: Tmax) was 0.03 h. It also gave an AUC(0-inf) [2, 17] of 1130 ng·h/mL, a half-life [2, 17] of 2.66 h and a Cmax [2, 17] of 400 ng/mL. The bioavailability ([2]; male, Sprague-Dawley, rat, plasma, oral, 100 mg/kg, oral 100 mg/kg vs iv 20 mg/kg, read-out: bioavailability) was 3.23%, the AUC(0-t) ([2]; male, Sprague-Dawley, rat, plasma, po, 100 mg/kg, area under the concentration-time curve (AUC0-t), oral administration 100 mg/kg, heading: area under the concentration-time curve) was roughly 1130 ng·h/mL and the IC50 [3] was 2.35 ± 0.29 µM. For the same compound, the IC50 [4] was 10.7 µM, the IC50 [5] was 21.1 ± 0.74 µM and the IC50 [6] was 4.89 ± 0.35 µM. For the same compound, the IC50 [7] was 0.26 ± 0.03 µM, the IC50 [8] was 43.5 ± 0.36 µM and the IC50 [9] was 23.3 µM. For the same compound, the IC50 [10] was 1.45 ± 0.12 µM, the “tumor growth inhibition (TGI)” value ([1]; 75 mg/kg) was 52.8% and the IC50 [11] was greater than 100 µM. For the same compound, the IC50 [12] was 53.8 ± 0.59 µM, the IC50 [13] was 1.65 ± 0.15 µM and the “solubility in normal saline” value ([14]; normal saline, compared with pure water) was “not much different from pure water”. For the same compound, the “Solubility in aqueous solution” value ([14]; pure water) was “less than 1 mg/mL” and the IC50 [15] was 47.05 ± 0.07 µM.
